Reference: patent US20240115649A1, “CASPASE INHIBITION TO ENHANCE REGENERATION AND REPAIR AFTER SKIN OR GUT INJURY AND TO TREAT BACTERIAL OR VIRAL INFECTIONS” (The Johns Hopkins University, priority 2020, published 2024)
Where a SMILES comes first, the peptide text is derived from it. The star is where a group is joined. Cbz = O=C(OCc1ccccc1)*; CH2F = FC*

Tests used:
[1] = system: mouse neutrophils; assay: Neutrophil cultures with live S. aureus ± caspase inhibitors; details: live S. aureus 6 hours, Q-VD-OPH 10 μg/mL, Emricasan 9 μg/mL
[2] = system: BMDMs; assay: BMDM cultures with live S. aureus ± caspase inhibitors; details: live S. aureus 6 hours, Q-VD-OPH 10 μg/mL, Emricasan 9 μg/mL
[3] = system: mouse epithelial keratinocytes; assay: Mouse epithelial keratinocyte culture (qRT-PCR, immunoblot); details: for IL-36α protein (whole-cell lysates): mouse epithelial keratinocytes
[4] = system: human keratinocytes; assay: Human keratinocyte culture (qRT-PCR, immunostaining)
Method: Human and Mouse Keratinocyte Isolation and Culture.
Quantitative real-time PCR (qRT-PCR).
Immunofluorescence, immunocytochemistry, and immunohistochemistry. […] After washing and permeabilization in TBS-T universal buffer (0.2% Triton X-100 in tris-buffered saline), sections were blocked at room-temperature in 5% goat, donkey or fetal bovine serum with 1% bovine serum albumin. […] Following subsequent washing, sections were incubated in fluorescent-dye conjugated secondary antibodies diluted in antibody diluent for 1 hour at room temperature. After final washing, sections were mounted with […] ® Hardset™ Antifade Mounting Medium with DAPI (Vector Laboratories, H-1500) for nuclear staining. Human keratinocytes were prepared similarly, with the exception of antigen retrieval. All slides were imaged using either the DFC365FX (Leica) or Eclipse E-800 (Nikon) at 10×, 20×, and 40× magnifications.

[5] = system: neogenic hair follicles; assay: Wound Induced Hair Neogenesis (WIHN) assay; format: in vivo, mice
Method: Wound Induced Hair Neogenesis (WIHN) Assay. All in vivo experimental surgical procedures were performed as previously characterized ^1,2,6-8. In short, after exposure to vaporizing anesthesia (Baxter, Isoflurane) the dorsal side of male and female 3-week-old (21 days) mice were shaved at approximately 8-10 g of weight. Using surgical scissors, approximately 1.26 cm^2×1.25 cm^2 of skin was excised creating wounds deep into the fascia. At 3 days post-wounding, a single dose (50 μl) of 100 μg/mL high molecular weight (HMW) polyinosinic-polycytidylic acid (Poly (I:C)) (Invivogen, tlrl-pic) was administered underneath the scab site via injection in both wild-type and transgenic mice as previously described^2,8. For functional experiments characterizing IL-36 on WIHN, a single dose (50 μl) of 1 μg/mL recombinant mouse IL-36α protein (R&D Systems, 7059-ML/CF) was injected underneath the scab site at 7 days post-wounding. For rescue experiments using the small molecule, broad spectrum pan-caspase inhibitor, 20 ul of 5 mg/mL Q-VD-OPh (in DMSO) was diluted 130 μL of phosphate-buffered saline (PBS) (1.33 mM final concentration) and injected intraperitoneally in mice 24 hours prior to wounding and approximately 10 days after wounding (scab detachment).
Immunofluorescence, immunocytochemistry, and immunohistochemistry.

[6] = no significant differences vs no treatment
[7] = RNase L siRNA transfected human keratinocytes, 10 μg/ml

Molecule: C[C@H](NC(=O)C(=O)Nc1ccccc1C(C)(C)C)C(=O)N[C@@H](CC(=O)O)C(=O)COc1c(F)c(F)cc(F)c1F [Emricasan]
- percentages of TNF+ neutrophils [1]: 25.47%
- viable cells (Zombie UV negative cells) [1, 6]: ~50%
- percentages of TNF+ BMDMs [2]: 33.53%
- viable cells (Zombie UV negative cells) [2, 6]: ~80%
- IL-36α protein (whole-cell lysates) [3]: increased

Molecule: CC(C)(O)c1coc(S(=O)(=O)NC(=O)Nc2c3c(cc4c2CCC4)CCC3)c1 [MCC950]
- regeneration (morphogenesis) markers ([4]; MCC950 100 μM, further increased by exogenous dsRNA addition): greater regeneration markers than controls

Molecule: COC(=O)CC[C@H](NC(=O)[C@H](Cc1c[nH]c2ccccc12)NC(=O)OCc1ccccc1)C(=O)N[C@@H](Cc1cnc[nH]1)C(=O)N[C@@H](CC(=O)OC)C(=O)CF [Z-WEHD-FMK] (Cbz-WE(OMe)HD(OMe)-CH2F)
- IL-36 receptor (IL36r) expression ([3]; 48 hrs treatment): not affected
- IL-36 receptor antagonist (IL-36m) protein or mRNA levels ([3]; 48 hrs treatment): not affected
- Tlr3 expression ([3]; 48 hrs treatment): elevated
- caspase gene mRNA (inflammatory caspases 1 and 4) ([3]; 48 hrs treatment): elevated
- IL-36α protein (whole-cell lysates) [3]: increased

Molecule: polyinosinic-polycytidylic acid [poly (I:C)]
- Il36α and Casp1 levels ([3]; after siRNA-mediated RNase L loss, poly (I:C) 10 μg/ml, 48 hrs): boosted
- WIHN (hair follicle regeneration) ([5]; Il36r^−/− mice): not responsive
- WIHN ([5]; Rnasel^−/− mice, poly (I:C) under the scab 3 days post-wounding): intact super-increase
- differentiation markers [4, 7]: inhibits differentiation markers
- morphogenesis markers [4, 7]: induces multiple morphogenesis markers

B1: rmIL-36a: recombinant mouse IL-36α protein (R&D Systems, 7059-ML/CF) (protein, UniProt Q9JLA2 8-160, looked up)
Interleukin-36 alpha: RAASPSLRHVQDLSSRVWILQNNILTAVPRKEQTVPVTITLLPCQYLDTLETNRGDPTYMGVQRPMSCLFCTKDGEQPVLQLGEGNIMEMYNKKEPVKASLFYHKKSGTTSTFESAAFPGWFIAVCSKGSCPLILTQELGEIFITDFEMIVVH
- increase in the number of neogenic hair follicles ([5]; 50 μl of 1 μg/mL injected underneath the scab at 7 days post-wounding, vs vehicle-treated controls): > 2 fold

B2: recombinant IL-36α: recombinant IL-36α used to treat human keratinocytes (protein, UniProt Q9UHA7 6-158, looked up)
Interleukin-36 alpha: KIDTPQQGSIQDINHRVWVLQDQTLIAVPRKDRMSPVTIALISCRHVETLEKDRGNPIYLGLNGLNLCLMCAKVGDQPTLQLKEKDIMDLYNQPEPVKSFLFYHSQSGRNSTFESVAFPGWFIAVSSEGGCPLILTQELGKANTTDFGLTMLF
- WNT7B mRNA expression ([4]; qRT-PCR): promotes WNT7B expression
